Results taken from ChEMBL document CHEMBL1132681, “Inhibition of human cytomegalovirus protease by enedione derivatives of thieno[2,3-d]oxazinones through a novel dual acylation/alkylation mechanism” (Bioorg Med Chem Lett, 1999).

What was measured:
[1] = molecular target: T1, Capsid scaffolding protein (Human cytomegalovirus (strain AD169) (HHV-5) (Human herpesvirus 5), UniProt P16753); experiment: Inhibitory activity against cytomegalovirus protease (CMV); type: functional
T1 sequence (P16753 whole entry): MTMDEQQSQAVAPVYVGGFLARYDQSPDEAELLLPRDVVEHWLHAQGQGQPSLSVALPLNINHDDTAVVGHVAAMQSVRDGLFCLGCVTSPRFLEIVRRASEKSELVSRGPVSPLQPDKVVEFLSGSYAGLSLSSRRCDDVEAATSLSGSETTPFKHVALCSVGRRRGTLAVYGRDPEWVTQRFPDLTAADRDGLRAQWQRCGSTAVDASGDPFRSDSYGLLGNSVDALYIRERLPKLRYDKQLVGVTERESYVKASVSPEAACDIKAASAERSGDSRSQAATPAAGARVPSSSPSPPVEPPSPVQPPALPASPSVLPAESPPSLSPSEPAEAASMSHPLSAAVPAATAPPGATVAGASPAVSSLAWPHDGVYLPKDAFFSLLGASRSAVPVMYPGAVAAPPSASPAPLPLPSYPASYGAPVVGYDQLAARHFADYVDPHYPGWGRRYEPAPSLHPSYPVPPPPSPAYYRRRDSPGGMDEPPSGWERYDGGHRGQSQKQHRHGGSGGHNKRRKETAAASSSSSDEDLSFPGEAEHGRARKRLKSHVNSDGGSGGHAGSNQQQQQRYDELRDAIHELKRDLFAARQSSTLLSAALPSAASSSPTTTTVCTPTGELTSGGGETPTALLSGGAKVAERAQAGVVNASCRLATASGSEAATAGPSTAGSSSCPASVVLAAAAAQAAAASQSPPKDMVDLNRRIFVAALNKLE

[2] = molecular target: T2, Capsid scaffolding protein (Human herpesvirus 2 (strain HG52) (HHV-2) (Human herpes simplex virus2), UniProt P89449); experiment: Inhibitory activity against herpes simplex virus protease (HSV-2); type: functional, Human alphaherpesvirus 2
T2 sequence (P89449 whole entry): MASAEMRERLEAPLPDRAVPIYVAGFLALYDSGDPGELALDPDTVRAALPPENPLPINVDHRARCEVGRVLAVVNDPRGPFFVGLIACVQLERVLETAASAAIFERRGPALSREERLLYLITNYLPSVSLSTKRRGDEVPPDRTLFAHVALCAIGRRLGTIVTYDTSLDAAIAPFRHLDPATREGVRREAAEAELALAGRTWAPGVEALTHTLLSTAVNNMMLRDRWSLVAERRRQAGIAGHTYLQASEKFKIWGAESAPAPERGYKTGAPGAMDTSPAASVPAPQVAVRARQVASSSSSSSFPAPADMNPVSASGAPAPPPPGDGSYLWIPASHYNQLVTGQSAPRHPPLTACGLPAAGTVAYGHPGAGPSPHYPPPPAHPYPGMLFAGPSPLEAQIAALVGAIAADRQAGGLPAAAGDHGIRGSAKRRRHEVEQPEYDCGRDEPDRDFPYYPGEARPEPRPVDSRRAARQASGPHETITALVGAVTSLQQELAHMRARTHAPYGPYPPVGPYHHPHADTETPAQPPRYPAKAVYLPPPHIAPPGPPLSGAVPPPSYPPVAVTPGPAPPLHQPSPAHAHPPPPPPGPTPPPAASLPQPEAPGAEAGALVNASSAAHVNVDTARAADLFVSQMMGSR

MRC5 = experiment: Compound was tested for cytotoxicity in MRC-5 cells using XTT assay; type: functional; conditions: Homo sapiens, read-out: TC50 (the source's name)

Structure (SMILES) | IC50 [1] | IC50 [2] | CC50 (MRC5)
CC(=O)/C=C/C(=O)N[C@@H](C)c1nc2scc(C)c2c(=O)o1 | 0.37 µM | 0.79 µM | 11 µM
Cc1csc2nc([C@H](C)NC(=O)CCC(=O)c3cccs3)oc(=O)c12 | 19 µM | 4.7 µM | –
Cc1csc2nc([C@H](C)NC(=O)/C=C/C(=O)c3ccc(Cl)cc3)oc(=O)c12 | 0.06 µM | 15 µM | –
COc1cccc(C(=O)/C=C/C(=O)N[C@@H](C)c2nc3scc(C)c3c(=O)o2)c1 | 0.029 µM | 0.68 µM | –
CCOc1ccc(C(=O)/C=C/C(=O)N[C@@H](C)c2nc3scc(C)c3c(=O)o2)cc1 | 0.26 µM | 16 µM | –
Cc1csc2nc([C@H](C)NC(=O)/C=C/C(=O)c3cccc(C#N)c3)oc(=O)c12 | 0.041 µM | 2 µM | –
Cc1csc2nc([C@H](C)NC(=O)/C=C/C(=O)c3ccccc3)oc(=O)c12 | 0.03 µM | 2.7 µM | 14 µM
Cc1csc2nc([C@H](C)NC(=O)/C=C/C(=O)c3cccc([N+](=O)[O-])c3)oc(=O)c12 | 0.031 µM | 3 µM | –
Cc1csc2nc([C@H](C)NC(=O)/C=C/C(=O)c3cccs3)oc(=O)c12 | 0.029 µM | 4.6 µM | 2 µM
Cc1csc2nc([C@H](C)NC(=O)/C=C/C(=O)Nc3ccccc3)oc(=O)c12 | 2.3 µM | 2.6 µM | –
Cc1csc2nc([C@H](C)NC(=O)CCC(=O)c3ccccc3)oc(=O)c12 | 21 µM | 12 µM | –
Cc1csc2nc([C@H](C)NC(=O)/C=C/C(=O)c3ccccc3[N+](=O)[O-])oc(=O)c12 | 0.014 µM | 2.2 µM | –
